ChEMBL document CHEMBL1129001, “From indomethacin to a selective COX-2 inhibitor: Development of indolalkanoic acids as potent and selective cyclooxygenase-2 inhibitors” (Bioorg Med Chem Lett, 1996)

Legend:
Rattus norvegicus = experiment: Compound was evaluated for inhibition of paw edema in rat; type: functional
[1] = target: T1, Prostaglandin G/H synthase 2 (Rattus norvegicus, UniProt P35355)
T1 sequence (P35355 whole entry): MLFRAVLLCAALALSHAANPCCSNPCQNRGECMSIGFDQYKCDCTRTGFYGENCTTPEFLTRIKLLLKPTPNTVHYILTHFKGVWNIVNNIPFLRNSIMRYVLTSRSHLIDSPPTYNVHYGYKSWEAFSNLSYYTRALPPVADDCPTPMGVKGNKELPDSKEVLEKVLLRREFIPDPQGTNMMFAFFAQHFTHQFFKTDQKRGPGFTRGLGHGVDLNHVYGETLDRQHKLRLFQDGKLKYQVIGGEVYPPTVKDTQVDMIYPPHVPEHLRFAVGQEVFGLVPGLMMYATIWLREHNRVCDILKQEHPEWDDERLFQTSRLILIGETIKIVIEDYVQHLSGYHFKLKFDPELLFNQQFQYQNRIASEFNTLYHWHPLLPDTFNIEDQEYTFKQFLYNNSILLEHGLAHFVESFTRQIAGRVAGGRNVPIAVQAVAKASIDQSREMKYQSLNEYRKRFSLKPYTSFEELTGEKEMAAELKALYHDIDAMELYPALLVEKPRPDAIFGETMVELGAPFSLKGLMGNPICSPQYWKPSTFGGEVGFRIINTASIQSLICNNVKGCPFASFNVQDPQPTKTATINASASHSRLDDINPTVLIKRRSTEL
Description: Inhibition of Prostaglandin G/H synthase 2

[2] = target: T2, Prostaglandin G/H synthase 1 (Rattus norvegicus, UniProt Q63921)
T2 sequence (Q63921 whole entry): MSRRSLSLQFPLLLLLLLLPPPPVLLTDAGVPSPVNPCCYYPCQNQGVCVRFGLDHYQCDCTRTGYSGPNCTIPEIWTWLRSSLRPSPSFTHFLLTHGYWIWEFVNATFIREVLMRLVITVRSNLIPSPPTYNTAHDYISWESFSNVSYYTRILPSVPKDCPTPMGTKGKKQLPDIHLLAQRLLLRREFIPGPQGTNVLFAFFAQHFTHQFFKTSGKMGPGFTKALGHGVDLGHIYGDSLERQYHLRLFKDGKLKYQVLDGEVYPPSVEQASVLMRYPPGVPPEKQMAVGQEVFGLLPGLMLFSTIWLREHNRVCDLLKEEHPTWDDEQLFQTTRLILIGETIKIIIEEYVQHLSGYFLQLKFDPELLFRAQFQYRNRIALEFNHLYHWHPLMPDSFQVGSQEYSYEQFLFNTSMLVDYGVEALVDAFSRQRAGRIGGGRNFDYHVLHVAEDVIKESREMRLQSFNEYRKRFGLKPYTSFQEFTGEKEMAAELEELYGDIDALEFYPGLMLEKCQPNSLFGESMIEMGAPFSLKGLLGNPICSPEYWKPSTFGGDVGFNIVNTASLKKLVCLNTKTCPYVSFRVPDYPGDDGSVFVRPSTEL
Description: Inhibition of Prostaglandin G/H synthase 1 using whole cell assay

| IC50 [1] [nM] | IC50 [2] [nM] | SMILES | ED30 (Rattus norvegicus) [mg/kg] |
| --- | --- | --- | --- |
| 500 | > 100000 | COc1ccc2c(c1)c(CC(=O)O)c(C)n2C(=O)c1c(Cl)cc(Cl)cc1Cl | 1.3 |
| 3 | > 50000 | COc1ccc2c(c1)c(CC(C)C(=O)O)c(C)n2Cc1ccc(Br)cc1 (centres undefined) | 2.6 |
| 3 | > 50000 | COc1ccc2c(c1)c(CCC(=O)O)c(C)n2Cc1ccc(Br)cc1 | > 3 |
| 20 | 11000 | COc1ccc2c(c1)c(C(C)C(=O)O)c(C)n2Cc1ccc(Cl)cc1 (centres undefined) | 3 |
| 4 | > 50000 | COc1ccc2c(c1)c(C(C)CC(=O)O)c(C)n2Cc1ccc(Br)cc1 (centres undefined) | 0.6 |
| 16 | > 10000 | COc1ccc2c(c1)c(CC1(CC(=O)O)CC1)c(C)n2Cc1ccc(Br)cc1 | 0.5 |
| 60 | > 50000 | COc1ccc2c(c1)c([C@@H](C)[C@@H](C)C(=O)O)c(C)n2Cc1ccc(Br)cc1 | 0.6 |
| 9 | 41000 | COc1ccc2c(c1)c(CC(=O)O)c(C)n2Cc1ccc(Br)cc1 | 0.6 |
| 4 | > 10000 | COc1ccc2c(c1)c(CCC(C)C(=O)O)c(C)n2Cc1ccc(Br)cc1 (centres undefined) | 1.6 |
| 6 | > 50000 | COc1ccc2c(c1)c(CCCC(=O)O)c(C)n2Cc1ccc(Br)cc1 | 1.2 |
|  |  | COc1ccc2c(c1)c(CC(=O)O)c(C)n2C(=O)c1ccc(Cl)cc1 [INDOMETHACIN] | 0.9 |

| SMILES | IC50 [1] [nM] | IC50 [2] [nM] | ED30 (Rattus norvegicus) [mg/kg] |
| --- | --- | --- | --- |
| COc1ccc2c(c1)c(CC(C)CC(=O)O)c(C)n2Cc1ccc(Br)cc1 (centres undefined) | 2 | > 10000 | 0.4 |
